Measured values: patent US6472389B1, “Pyrrolo[1,2-b] pyridazine derivatives having sPLA2 inhibitory effect” (Shionogi & Co., Ltd., priority 1998, dated 2002)
pIC50: −log10 of the molar value.

Legend:
[1] = biological target: T1, recombinant human secretory phospholipase A2 (Homo sapiens, UniProt P14555); assay: Inhibition test of human secretory phospholipase A2 (chromogenic assay, 96 well microtiterplate); assay type: biochemical; details: sPLA2 50 ng/well, 40° C., 30 minutes, OD 405 nm, substrate 1,2-bis(heptanoylthio)-1,2-dideoxy-sn-glycero-3-phospholylcholine
T1 sequence (P14555 21-144): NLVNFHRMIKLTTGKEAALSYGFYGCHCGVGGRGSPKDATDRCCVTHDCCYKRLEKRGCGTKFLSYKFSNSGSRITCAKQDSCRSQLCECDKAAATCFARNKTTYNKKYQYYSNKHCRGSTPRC
From the text: Inhibition Test of Human Secretory Phospholipase A2
In order to identify and evaluate an inhibitor of recombinant human secretory phospholipase A2, the following chromogenic assay is utilized. The assay herein has been applied for high volume screening wherein 96 well microtiterplate is used. A general explanation for such assay is described in “Analysis of Human Synovial Fluid Phospholipase A2 on Short Chain Phosphatidylcholine-Mixed Micelles: Development of a Spectrophotometric Assay Suitable for a Micortiterplate Reader” (Analytical Biochemistry, 204, pp 190-197, 1992 by Laure. J. Reynolds. Lori L. Hughes and Edward A. Dennis: the disclosure of which is incorporated herein for reference.
Bovine Serum Albumin (fatty acid free) (1 g/L) (Sigma A-7030)
pH 7.5 (adjusted with NaOH)
pH 4.5 (adjusted with acetic acid)
1 mg of sPLA2 is dissolved in 1 ml of an enzyme buffer. Thereafter, the solution is maintained at 4° C.
In the assay, 5 μl of the solution is diluted with 1995 μl of the reaction buffer to be used.
198 mg of 5,5′-dithiobis-2-[…] (manufactured by Wako Pure Chemicals) is dissolved in 100 ml of H2O
100 mg of racemic 1,2-bis(heptanoylthio)-1,2-dideoxy-sn-glycero-3-phospholylcholine is dissolved in 1 ml of chloroform.
624.9 mg of Triton-X 100 is dissolved in the reaction buffer.
Enzyme Reaction: for 1 plate of Microtiterplate
1) 0.106 ml of the substrate solution is put in a centrifugal tube, and nitrogen gas is jetted to remove the solvent. 0.54 ml of Triton-X 100 is added thereto, the mixture is stirred, thereafter it is sonified in a bath type sonification to dissolve. To the resulting product are added 17.8 m1l of the reaction buffer and 0.46 ml of DTNB, and 0.18 ml each of the admixture is poured to wells of the 96 well microtiterplate.
2) 10 μl of a test compound (or solvent blank) are added in accordance with alignment of plates which has been previously set.
3) Incubation is effected at 40° C. for 15 minutes.
4) 20 μl of an enzyme solution (sPLA2) which has been previously diluted (50 ng/well) are added to start reaction (40° C., 30 minutes).
5) Changes in absorbancy for 30 minutes are measured by a plate reader, and inhibition activity was calculated (OD: 405 nm).
6) IC50 was determined by plotting log concentration with respect to inhibition values within 10% to 90% inhibiting range.

Structure (SMILES)	pIC50 [1]	melting point
CCc1c(C(=O)C(N)=O)c2c(OCC(=O)OC)cc(COc3ccc(F)cc3)nn2c1Cc1ccccc1 [Compound I-7]	6.65	178 to 179 °C
CCc1c(C(=O)C(N)=O)c2c(OCC(=O)OC)cc(COc3ccc(OC)cc3)nn2c1Cc1ccccc1 [Compound I-46]	6.57	167 to 168 °C
CCc1c(C(=O)C(N)=O)c2c(OCC(=O)OC)cc(C)nn2c1Cc1cccc(Oc2ccccc2)c1 [Compound I-36]	6.99	201 to 202 °C
CCc1c(C(=O)C(N)=O)c2c(OCC(=O)O)cc(CN3CCOCC3)nn2c1Cc1ccccc1 [Compound I-60]	6.44	167 to 168 °C
CCc1c(C(=O)C(N)=O)c2c(OCC(=O)OC)cc(-c3ccccc3)nn2c1Cc1ccc(F)cc1 [Compound I-13]	6.62	253 to 255 °C
CCc1c(C(=O)C(N)=O)c2c(OCC(=O)OC)cc(C3CCCCC3)nn2c1Cc1ccccc1 [Compound I-37]	6.67	207 to 209 °C (dec.)
CCc1c(C(=O)C(N)=O)c2c(OCC(=O)O)cc(CN3CCCC3)nn2c1Cc1ccccc1 [Compound I-59]	5.97	228 to 231 °C (dec.)
CCc1c(C(=O)C(N)=O)c2c(OCC(=O)OC)ccnn2c1Cc1ccccc1 [Compound I-1, Methyl (5-aminooxalyl-7-benzyl-6-ethylpyrrolo[1,2-b]pyridazine-4-yloxy)acetate]	6.61	210 to 212 °C
CCc1c(C(=O)C(N)=O)c2c(OCC(=O)OC)cc(C)nn2c1Cc1ccccc1-c1ccc(F)cc1 [Compound I-54]	6.83	190 to 192 °C
COC(=O)COc1cc(CSC)nn2c(Cc3ccccc3)c(C)c(C(=O)C(N)=O)c12 [Compound I-43]	6.81	210 to 211 °C
CCc1cc(OCC(=O)OC)c2c(C(=O)C(N)=O)c(C)c(Cc3ccccc3)n2n1 [Compound I-40]	7.00	194 to 196 °C
CCc1c(C(=O)C(N)=O)c2c(OCC(=O)OC)cc(COc3ccc(OC)c(OC)c3)nn2c1Cc1ccccc1 [Compound I-47]	6.21	176 to 179 °C
CCc1c(C(=O)C(N)=O)c2c(OCC(=O)OC)cc(-c3ccccc3)nn2c1Cc1ccccc1 [Compound I-11]	7.17	236 to 239 °C
CCc1c(C(=O)C(N)=O)c2c(OCC(=O)OCc3ccccc3)cc(CN3CCN(C)CC3)nn2c1Cc1ccccc1 [Compound I-31]	4.81	202 to 203 °C
CCc1c(C(=O)C(N)=O)c2c(OCC(=O)OC)cc(-c3ccc(F)cc3)nn2c1Cc1ccc(F)cc1 [Compound I-32]	6.62	274 to 276 °C (dec.)
COCc1cc(OCC(=O)OC)c2c(C(=O)C(N)=O)c(C)c(Cc3ccccc3)n2n1 [Compound I-44]	6.50	228 to 229 °C (dec.)
CCc1cc(OCC(=O)OC)c2c(C(=O)C(N)=O)c(CC)c(Cc3ccccc3)n2n1 [Compound I-8]	6.74	183 to 185 °C
CCc1c(C(=O)C(N)=O)c2c(OCC(=O)OCc3ccccc3)cc(CN3CCCC3)nn2c1Cc1ccccc1 [Compound I-29]	5.82	185 to 186 °C
CCc1c(C(=O)C(N)=O)c2c(OCC(=O)OC)cc(C3CCCC3)nn2c1Cc1ccccc1 [Compound I-38]	6.64	160 to 162 °C (dec.)
CCc1c(C(=O)C(N)=O)c2c(OCC(=O)OC)cc(-c3ccccc3)nn2c1Cc1ccccc1F [Compound I-15]	7.01	244 to 246 °C
CCc1c(C(=O)C(N)=O)c2c(OCC(=O)OC)cc(COc3ccc(C)cc3)nn2c1Cc1ccccc1 [Compound I-48]	6.68	191 to 192 °C
CCc1c(C(=O)C(N)=O)c2c(OCC(=O)OCc3ccccc3)cc(CN=[N+]=[N-])nn2c1Cc1ccccc1 [Compound I-50]	6.28	178 to 179 °C

Stronger by pIC50 [1], values ahead:

pIC50 [1]	melting point	Structure (SMILES)
7.72	228 to 229 °C (dec.)	CSCc1cc(OCC(=O)O)c2c(C(=O)C(N)=O)c(C)c(Cc3ccccc3)n2n1 [Compound I-73]
7.25	197 to 199 °C	CCOC(=O)COc1cc(C)nn2c(Cc3ccccc3)c(C)c(C(=O)C(N)=O)c12 [Compound I-55]
8.05	215 to 216 °C	CCc1c(C(=O)C(N)=O)c2c(OCC(=O)O)cc(COc3ccc(F)cc3)nn2c1Cc1ccccc1 [Compound I-75]
7.82	197 to 198 °C	COCc1cc(OCC(=O)O)c2c(C(=O)C(N)=O)c(C)c(Cc3ccccc3)n2n1 [Compound I-74]
7.68	248 to 250 °C	CCc1c(C(=O)C(N)=O)c2c(OCC(=O)O)cc(C(F)(F)F)nn2c1Cc1ccc(F)cc1 [Compound I-24]
8.22	250 to 253 °C (dec.)	CCc1c(C(=O)C(N)=O)c2c(OCC(=O)O)cc(-c3ccc(F)cc3)nn2c1Cc1ccccc1 [Compound I-63]
8.05	245 to 247 °C (dec.)	Cc1c(C(=O)C(N)=O)c2c(OCC(=O)O)cc(Cc3ccccc3)nn2c1Cc1ccccc1 [Compound I-72]
7.92	271 to 272 °C (dec.)	Cc1cc(OCC(=O)O)c2c(C(=O)C(N)=O)c(C)c(Cc3ccccc3)n2n1 [Compound I-16]
8.15	218 to 220 °C (dec.)	CCc1c(C(=O)C(N)=O)c2c(OCC(=O)O)cc(COc3ccccc3)nn2c1Cc1ccccc1 [Compound I-57]
7.72	234 to 236 °C (dec.)	CCc1c(C(=O)C(N)=O)c2c(OCC(=O)O)cc(C(C)C)nn2c1Cc1ccccc1 [Compound I-20]
8.22	244 to 246 °C (dec.)	CCc1c(C(=O)C(N)=O)c2c(OCC(=O)O)cc(-c3ccccc3)nn2c1Cc1ccccc1 [Compound I-21]
7.92	245 to 248 °C (dec.)	CCc1c(C(=O)C(N)=O)c2c(OCC(=O)O)cc(-c3ccc(F)cc3)nn2c1Cc1ccccc1 [Compound I-62]
8.15	250 to 252 °C	CCc1c(C(=O)C(N)=O)c2c(OCC(=O)O)cc(-c3ccccc3)nn2c1Cc1ccc(F)cc1 [Compound I-23]
8.05		CCc1c(C(=O)C(N)=O)c2c(OCC(=O)O)ccnn2c1Cc1ccccc1 [Compound I-2, (5-aminooxalyl-7-benzyl-6-ethylpyrrolo[1,2-b]pyridazine-4-yloxy)acetic acid]
8.15	253 to 254 °C (dec.)	Cc1c(C(=O)C(N)=O)c2c(OCC(=O)O)cc(-c3ccccc3)nn2c1Cc1ccccc1 [Compound I-17]
8.10	214 to 216 °C (dec.)	CCc1c(C(=O)C(N)=O)c2c(OCC(=O)O)cc(C)nn2c1Cc1ccccc1-c1ccc(F)cc1 [Compound I-84]
8.10	240 to 243 °C (dec.)	CCc1c(C(=O)C(N)=O)c2c(OCC(=O)O)cc(-c3ccc4c(c3)OCO4)nn2c1Cc1ccccc1 [Compound I-69]
7.19	210 to 211 °C	CCCc1cc(OCC(=O)OC)c2c(C(=O)C(N)=O)c(C)c(Cc3ccccc3)n2n1 [Compound I-41]
8.00	223 to 225 °C (dec.)	CCc1cc(OCC(=O)O)c2c(C(=O)C(N)=O)c(CC)c(Cc3ccccc3)n2n1 [Compound I-18]
7.60	250 to 252 °C (dec.)	CCc1c(C(=O)C(N)=O)c2c(OCC(=O)O)cc(C3CCCC3)nn2c1Cc1ccccc1 [Compound I-68]
7.89		CCc1c(C(=O)C(N)=O)c2c(OCC(=O)O)ccnn2c1Cc1ccccc1 [Compound I-3, Sodium (5-aminooxalyl-7-benzyl-6-ethylpyrrolo[1,2-b]pyridazine-4-yloxy)acetate]
7.96		CCc1c(C(=O)C(N)=O)c2c(OCC(=O)O)cc(C)nn2c1Cc1ccccc1 [Compound I-5, (5-aminooxalyl-7-benzyl-6-ethyl-2-methylpyrrolo[1,2-b]pyridazine-4-yloxy)acetic acid]
